Data published in patent US20100028414A1, “COMBINATION OF TYROSINE KINASE INHIBITOR AND HER-2/NEU FOR CANCER THERAPY” (priority 2004, published 2010).

Key:
[1] = biological target: T1, phospho-ErbB2 (p-ErbB2) (Homo sapiens, UniProt P04626); experiment: Western blot of activated phospho-ErbB2, BT474 cells; assay type: cell-based; settings: lapatinib 0.1 μM, pAb 100 μg/ml, trastuzumab 10 μg/ml, 72 hr, FIG. 12A bottom
T1 construct: whole cell extracts were prepared by scraping cells off petri dishes; host or cells: BT474
T1 sequence (P04626 23-1255): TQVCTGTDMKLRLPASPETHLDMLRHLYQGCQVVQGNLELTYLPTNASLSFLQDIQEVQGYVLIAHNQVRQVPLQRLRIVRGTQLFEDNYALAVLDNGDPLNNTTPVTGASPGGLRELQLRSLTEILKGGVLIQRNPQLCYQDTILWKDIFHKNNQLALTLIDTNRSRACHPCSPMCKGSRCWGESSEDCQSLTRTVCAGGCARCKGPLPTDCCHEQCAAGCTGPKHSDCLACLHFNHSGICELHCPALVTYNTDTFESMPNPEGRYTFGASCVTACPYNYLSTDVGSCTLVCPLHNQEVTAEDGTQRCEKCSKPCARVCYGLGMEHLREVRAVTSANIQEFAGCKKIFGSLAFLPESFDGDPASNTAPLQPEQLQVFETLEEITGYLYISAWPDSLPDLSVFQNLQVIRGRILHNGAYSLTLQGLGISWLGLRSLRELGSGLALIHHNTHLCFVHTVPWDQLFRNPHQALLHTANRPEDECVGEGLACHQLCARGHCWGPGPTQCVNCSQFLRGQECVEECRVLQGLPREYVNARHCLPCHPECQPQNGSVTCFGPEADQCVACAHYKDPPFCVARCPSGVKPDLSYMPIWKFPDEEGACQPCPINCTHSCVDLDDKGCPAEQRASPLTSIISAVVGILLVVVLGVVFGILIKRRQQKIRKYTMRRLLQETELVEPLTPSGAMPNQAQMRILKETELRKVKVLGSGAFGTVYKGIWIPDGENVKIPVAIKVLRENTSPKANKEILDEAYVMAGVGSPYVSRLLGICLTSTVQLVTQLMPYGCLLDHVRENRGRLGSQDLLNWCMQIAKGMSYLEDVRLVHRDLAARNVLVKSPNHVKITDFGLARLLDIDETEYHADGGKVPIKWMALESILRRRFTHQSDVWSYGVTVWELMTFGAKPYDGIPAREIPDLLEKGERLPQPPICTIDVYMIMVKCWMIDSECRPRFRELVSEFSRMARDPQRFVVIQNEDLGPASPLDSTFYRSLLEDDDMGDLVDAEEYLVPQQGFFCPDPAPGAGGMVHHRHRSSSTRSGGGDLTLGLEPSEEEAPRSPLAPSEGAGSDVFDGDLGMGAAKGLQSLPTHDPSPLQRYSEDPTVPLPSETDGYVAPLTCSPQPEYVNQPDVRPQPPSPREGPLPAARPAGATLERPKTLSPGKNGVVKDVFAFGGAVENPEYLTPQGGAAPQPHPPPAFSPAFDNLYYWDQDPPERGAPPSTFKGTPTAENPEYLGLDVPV
Description: (§1) To assess the levels of various proteins in cells, whole cell extracts were prepared by scraping cells off petri dishes, washing the cell pellet twice in phosphate buffered saline (PBS), and then resuspending the pellet in two-packed-cell volumes of RIPA buffer(150 mM NaCl, 50 mM Tris-HCl, pH 7.5, 0.25% (w/v) deoxycholate, 1% NP-40, 5 mM sodium orthovanadate, 2 mM sodium fluoride, and a protease inhibitor cocktail). Protein concentrations were determined using a modification of the Bradford method (Bio-Rad Laboratory). […] The immunoprecipitates were separated by 4-15% gradient SDS-polyacrylamide […] gel electrophoresis (SDS-PAGE), and ErbB receptors were detected by Western Blot with anti-ErbB receptor antibodies.
(§2) Steady state levels of Survivin, total ErbB2, phosphorylated ErbB2 (pErbB2 or pTyr), total Erk1/2 , activated Erk1/2 (p-Erk), total pErbB3, activated pErbB3 (pErbB3), total AKT protein and activated Akt (p-Akt) protein were assessed by Western blot. Levels of pErbB2 were assessed using an antibody that bound to multiple tyrosine-phosphorylated forms of ErbB2 (i.e., the antibody was not phosphorylation-site specific). […]
(§3) For Western blot, equal amounts of proteins were resolved by either 7.5% or 4-15% gradient SDS polyacrylamide gel electrophoresis under reducing conditions. […] Efficiency and equal loading of proteins was evaluated by Ponceau S staining. […]

[2] = test system: BT474 human breast cancer cells; experiment: In vitro growth inhibition assay ([3H] thymidine incorporation), BT474; assay type: cell-based; settings: 0.01 μM Lapatinib, 50 μg/ml pAb, 72 h, FIG. 11A
Description: (§4) The antiproliferative effect of vaccine induced anti HER2 polyclonal antibodies (pAb) in combination with Lapatinib was evaluted on human breast cancer cells overexpressing the HER2/neu molecule (BT474 and SKBR3 cells) using the [^3H] thymidine incorporation method. Briefly, 10e4 cells were seeded in 200 μl, in triplicate, in 96-w plates and incubated for 72 h at 37° C. in • 1) medium; • 2) medium containing Lapatinib alone (0.01 μM); • 3) medium containing pAb alone (50 μg/ml); • 4) medium containing pre-immune pAb (TA2021) (50 μg/ml); • 5) a combination of (2) Lapatinib (0.01 μM ) and (3) pAb (50 μg/ml); or • 6) a combination of (2) Lapatinib (0.01 μM ) and (4) pre-immune pAb (TA2021) (50 μg/ml).
(§5) 1 μCi of [^3H] Thymidine (5 Ci/mmol; Amersham) was added for an additional 24 h after which cells were harvested by trypsinisation onto filter plates and the incorporated radioactivity was counted in a beta counter. Results were expressed in cpm and the percentage of growth inhibition was calculated referring to the medium.

[3] = test system: SKBR3 human breast cancer cells; experiment: In vitro growth inhibition assay ([3H] thymidine incorporation), SKBR3; assay type: cell-based; settings: 0.01 μM Lapatinib, 50 μg/ml pAb, 72 h, FIG. 11B
Description: as §4, §5

[4] = test system: BT474 cells; experiment: Apoptosis by annexin V staining and flow cytometry, BT474; assay type: cell-based, human; settings: lapatinib 0.1 μM, pAb 100 μg/ml, trastuzumab 10 μg/ml, 72 hr, FIG. 12A top
Description: After harvesting the cells with trypsin-EDTA, 5000 cells in 50 μl were sampled on 96-well microplates. The cells were stained directly in the microplate with Annexin V-PE and Nexin 7-AAD in 1× Nexin Buffer in a 200 μl final reaction volume. After incubating for 20 minutes at room temperature, the reaction samples were ready to be acquired in the Guava PCA-96-system (Guava Technology, Inc., Hayward, Calif. USA).
7-AAD binds to cellular nuclear material after cellular membranes break down in late apoptosis. Annexin-V staining indicates early apoptotic changes that precede the loss of cellular membrane integrity. Use of Annexin-V in conjunction with 7-amino-actinomycin D (7-AAD) thus can identify both early and late apoptotic cells.
Flow cytometry results were graphed as dot plot results (not shown) with annexin V on the X-axis and 7-AAD on the Y-axis. Low annexin V and low 7-AAD represented viable cells; low annexin V and high 7-AAD indicated nuclear debris; cells with high annexin V staining indicated apoptotic cells.

[5] = test system: phospho-Akt; experiment: Western blot of activated phospho-Akt, BT474 cells; assay type: cell-based, human; settings: 72 hr, FIG. 13
Description: as §1, §2, §3

[6] = test system: survivin; experiment: Western blot of steady state survivin protein, BT474 cells; assay type: cell-based, human; settings: lapatinib 0.1 μM, pAb 100 μg/ml, trastuzumab 10 μg/ml, 72 hr, FIG. 12A bottom
Description: as §1, §2, §3

[7] = test system: phospho-Erk1/2; experiment: Western blot of activated phospho-Erk1/2, BT474 cells; assay type: cell-based, human; settings: 72 hr, FIG. 13
Description: as §1, §2, §3

[8] = biological target: T2, total ErbB2 (Homo sapiens, UniProt P04626); experiment: Western blot of total ErbB2, BT474 cells; assay type: cell-based; settings: lapatinib 0.1 μM, pAb 100 μg/ml, trastuzumab 10 μg/ml, 72 hr, FIG. 12A bottom
T2 construct: whole cell extracts were prepared by scraping cells off petri dishes; host or cells: BT474
T2 sequence (P04626 23-1255): as above
Description: as §1, §2, §3

steady-state levels of activated, phosphorylated ErbB2 protein (pErbB2) [1]: inhibited
total ErbB2 protein [8]: without affecting total ErbB2 protein
Structure (SMILES): CS(=O)(=O)CCNCc1ccc(-c2ccc3ncnc(Nc4ccc(OCc5cccc(F)c5)c(Cl)c4)c3c2)o1 [lapatinib, N-{3-Chloro-4-[(3-fluorobenzyl)oxy]phenyl}-6-[5-({[2-(methanesulphonyl)ethyl]amino}methyl)-2-furyl]-4-quinazolmamine]
growth inhibition [2]: only modest growth inhibition
growth inhibition [3]: only modest growth inhibition
apoptosis [4]: slight increase in apoptosis
steady state levels of pAkt [5]: reduced
survivin protein expression [6]: inhibited
steady state levels of pErk1/2 [7]: reduced
